Assay results as given in patent US9980943B2, “Methods of treating muscular dystrophy” (BOARD OF REGENTS OF THE NEVADA SYSTEM OF HIGHER EDUCATION, …, priority 2013, dated 2018).

What was measured:
Format in all cases: cell-based, mouse
[1] = tested on: α7 integrin (LacZ reporter in α7βgal+/− myoblasts); experiment: Myoblast α7+/LacZ integrin FDG assay (Burkin assay in myoblasts, 96-well); settings: α7+/LacZ myoblasts, 96-well
[2] = tested on: β-galactosidase in CMV-LacZ C2C12 myotubes; experiment: CMV-LacZ secondary screen in C2C12 myotubes (β-Gal stabilizing assay); settings: C2C12 CMV-LacZ myotubes, fold relative to DMSO
Outline: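 β-gal stabilization was measured in C2C12 myoblasts or myotubes stably transfected with a CMV-driven LacZ construct, using the FDG β-gal assay. Compounds were tested in dose-response at 0.5, 1, 5, 10, 20 and 40 μM, with two replicates per point.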

[3] = tested on: α7 integrin (LacZ reporter in α7+/LacZ myotubes); experiment: Myotube α7 integrin FDG assay (Burkin assay in myotubes, 96-well); settings: myotubes

| Structure (SMILES) | Burkin Assay in Myoblasts, signal relative to DMSO ([1]; 0.5 uM) | Burkin Assay in Myoblasts, signal relative to DMSO ([1]; 1 uM) | Burkin Assay in Myoblasts, signal relative to DMSO ([1]; 5 uM) | Burkin Assay in Myoblasts, signal relative to DMSO ([1]; 10 uM) | Burkin Assay in Myoblasts, signal relative to DMSO ([1]; 20 uM) | Burkin Assay in Myoblasts, signal relative to DMSO ([1]; 40 uM) | CMV-LACZ in Myotubes, signal relative to DMSO ([2]; 5 uM) | CMV-LACZ in Myotubes, signal relative to DMSO ([2]; 10 uM) | CMV-LACZ in Myotubes, signal relative to DMSO ([2]; 20 uM) | CMV-LACZ in Myotubes, signal relative to DMSO ([2]; 40 uM) | Burkin Assay in Myotubes, α7 integrin LacZ reporter signal relative to DMSO ([3]; 0.5 uM) | Burkin Assay in Myotubes, α7 integrin LacZ reporter signal relative to DMSO ([3]; 1 uM) | Burkin Assay in Myotubes, α7 integrin LacZ reporter signal relative to DMSO ([3]; 5 uM) | Burkin Assay in Myotubes, α7 integrin LacZ reporter signal relative to DMSO ([3]; 10 uM) | Burkin Assay in Myotubes, α7 integrin LacZ reporter signal relative to DMSO ([3]; 20 uM) | Burkin Assay in Myotubes, α7 integrin LacZ reporter signal relative to DMSO ([3]; 40 uM) | other results |
| --- | --- | --- | --- | --- | --- | --- | --- | --- | --- | --- | --- | --- | --- | --- | --- | --- | --- |
| COc1ccc(-c2cc(COc3ccccc3)on2)cc1 [MLS000695955-01] |  |  |  |  |  |  |  |  |  |  |  |  |  |  |  |  | fold induction at 0.5 µM ([1]; Mus musculus, Myoblast, 48 h, 0.5 uM, read-out: Burkin Assay in Myoblasts, signal relative to DMSO): 0.902; fold induction at 1 µM ([1]; Mus musculus, Myoblast, 48 h, 1 uM, read-out: Burkin Assay in Myoblasts, signal relative to DMSO): 0.871; fold induction at 5 µM ([1]; Mus musculus, Myoblast, 48 h, 5 uM, read-out: Burkin Assay in Myoblasts, signal relative to DMSO): 1.08; fold induction at 10 µM ([1]; Mus musculus, Myoblast, 48 h, 10 uM, read-out: Burkin Assay in Myoblasts, signal relative to DMSO): 1.06; fold induction at 20 µM ([1]; Mus musculus, Myoblast, 48 h, 20 uM, read-out: Burkin Assay in Myoblasts, signal relative to DMSO): 0.961; fold induction at 40 µM ([1]; Mus musculus, Myoblast, 48 h, 40 uM, read-out: Burkin Assay in Myoblasts, signal relative to DMSO): 1.03; fold induction at 5 µM ([2]; Mus musculus, C2C12, read-out: CMV-LACZ in Myotubes, signal relative to DMSO, 5 uM): 0.789; fold induction at 10 µM ([2]; Mus musculus, C2C12, read-out: CMV-LACZ in Myotubes, signal relative to DMSO, 10 uM): 0.896; fold induction at 20 µM ([2]; Mus musculus, C2C12, read-out: CMV-LACZ in Myotubes, signal relative to DMSO, 20 uM): 0.992; fold induction at 40 µM ([2]; Mus musculus, C2C12, read-out: CMV-LACZ in Myotubes, signal relative to DMSO, 40 uM): 0.93; fold induction at 0.5 µM ([3]; Mus musculus, Myotube, 0.5 uM, read-out: Burkin Assay in Myotubes, α7 integrin LacZ reporter signal relative to DMSO): 0.945; fold induction at 1 µM ([3]; Mus musculus, Myotube, 1 uM, read-out: Burkin Assay in Myotubes, α7 integrin LacZ reporter signal relative to DMSO): 1.03; fold induction at 5 µM ([3]; Mus musculus, Myotube, 5 uM, read-out: Burkin Assay in Myotubes, α7 integrin LacZ reporter signal relative to DMSO): 1.15; fold induction at 10 µM ([3]; Mus musculus, Myotube, 10 uM, read-out: Burkin Assay in Myotubes, α7 integrin LacZ reporter signal relative to DMSO): 1.32; fold induction at 20 µM ([3]; Mus musculus, Myotube, 20 uM, read-out: Burkin Assay in Myotubes, α7 integrin LacZ reporter signal relative to DMSO): 1.23; fold induction at 40 µM ([3]; Mus musculus, Myotube, 40 uM, read-out: Burkin Assay in Myotubes, α7 integrin LacZ reporter signal relative to DMSO): 1.39 |
| COc1ccc(N2CCN(CCC3Oc4cc([N+](=O)[O-])ccc4NC3=O)CC2)cc1 (stereo not shown) [MLS000696445-01] | 1.013 | 0.5621 | 0.867 | 0.8807 | 0.813 | 0.807 | 1.268 | 1.011 | 1.122 | 0.924 | 0.8602 | 0.8637 | 0.9714 | 0.625 | 0.5843 | 0.8433 |  |
| O=C(N/N=C/c1cn[nH]c1-c1ccc(F)cc1)c1ccncc1 [MLS000698686-01] |  |  |  |  |  |  | 0.8364 | 0.9727 | 0.8864 | 0.8864 |  |  |  |  |  |  | Burkin Assay in Myoblasts, value relative to DMSO ([1]; 0.5 uM): 1.037; Burkin Assay in Myoblasts, value relative to DMSO ([1]; 1 uM): 1.018; Burkin Assay in Myoblasts, value relative to DMSO ([1]; 5 uM): 1.054; Burkin Assay in Myoblasts, value relative to DMSO ([1]; 10 uM): 1.075; Burkin Assay in Myoblasts, value relative to DMSO ([1]; 20 uM): 0.8456; Burkin Assay in Myoblasts, value relative to DMSO ([1]; 40 uM): 0.8252; Burkin Assay in Myotubes (signal relative to DMSO) ([3]; 0.5 uM): 0.8838; Burkin Assay in Myotubes (signal relative to DMSO) ([3]; 1 uM): 0.6159; Burkin Assay in Myotubes (signal relative to DMSO) ([3]; 5 uM): 1.013; Burkin Assay in Myotubes (signal relative to DMSO) ([3]; 10 uM): 0.966; Burkin Assay in Myotubes (signal relative to DMSO) ([3]; 20 uM): 0.6986; Burkin Assay in Myotubes (signal relative to DMSO) ([3]; 40 uM): 0.9722 |
| CCOc1ccc(NC(=O)CN2C(=O)S/C(=C/c3cccn3C)C2=O)cc1 [MLS000702680-01] | 0.845 | 0.8804 | 0.8623 | 0.8908 | 0.6925 | 0.6264 | 1.008 | 1.107 | 1.233 | 1.181 | 1.016 | 0.9196 | 0.9678 | 0.7773 | 0.8074 | 0.7464 |  |
